PubChem BioAssay AID1259407 (Chemical Carcinogenesis Research Information System (CCRIS), 2018)
Active and inactive are the calls of the source. The rule behind the calls is not given here.

Test system: CCRIS mutagenicity, Ames/micronucleus/aberration tests
Assay: CCRIS mutagenicity studies
[1] = Test System: AMES SALMONELLA TYPHIMURIUM, Strain/Indicator: TA97, Metabolic Activation: NONE, Method: PREINCUBATION
[2] = Test System: AMES SALMONELLA TYPHIMURIUM, Strain/Indicator: TA98, Metabolic Activation: NONE, Method: STANDARD PLATE
[3] = Test System: AMES SALMONELLA TYPHIMURIUM, Strain/Indicator: TA100, Metabolic Activation: NONE, Method: STANDARD PLATE

Cc1c(N)cccc1N
mutagenic call (End Point: IN VITRO CHROMOSOMAL ABERRATIONS, Test System: CHINESE HAMSTER LUNG CELLS (CHL), Metabolic Activation: NONE): active; positive (structural changes) | mutagenic call (End Point: IN VITRO CHROMOSOMAL ABERRATIONS, Test System: CHINESE HAMSTER LUNG CELLS (CHL), Metabolic Activation: RAT, LIVER, S-9, KC-400): active; positive (structural changes) | mutagenic call (End Point: IN VITRO CHROMOSOMAL ABERRATIONS, Test System: CHINESE HAMSTER OVARY CELLS (CHO), Metabolic Activation: NONE): active; positive (structural changes) | mutagenic call (End Point: IN VITRO CHROMOSOMAL ABERRATIONS, Test System: CHINESE HAMSTER OVARY CELLS (CHO), Metabolic Activation: RAT, LIVER, S-9, AROCLOR 1254): inactive; negative | mutagenic call (End Point: IN VITRO CHROMOSOMAL ABERRATIONS, Test System: CHO CELLS, Metabolic Activation: RAT, LIVER, S-9, AROCLOR 1254): inactive; negative | mutagenic call (Test System: AMES SALMONELLA TYPHIMURIUM, Strain/Indicator: TA97, Metabolic Activation: HAMSTER, LIVER, S-9, AROCLOR 1254 (10%), Method: PREINCUBATION): active; positive | mutagenic call [1]: inactive; negative | mutagenic call (Test System: AMES SALMONELLA TYPHIMURIUM, Strain/Indicator: TA97, Metabolic Activation: RAT, LIVER, S-9, AROCLOR 1254 (10%), Method: PREINCUBATION): inactive; negative | mutagenic call (Test System: AMES SALMONELLA TYPHIMURIUM, Strain/Indicator: TA98, Metabolic Activation: HAMSTER, LIVER, S-9, AROCLOR 1254 (10%), Method: PREINCUBATION): active; positive | mutagenic call (Test System: AMES SALMONELLA TYPHIMURIUM, Strain/Indicator: TA98, Metabolic Activation: NONE, Method: PREINCUBATION): inactive; negative | mutagenic call (Test System: AMES SALMONELLA TYPHIMURIUM, Strain/Indicator: TA98, Metabolic Activation: RAT, LIVER, S-9, AROCLOR 1254 (10%), Method: PREINCUBATION): active; positive | mutagenic call (Test System: AMES SALMONELLA TYPHIMURIUM, Strain/Indicator: TA100, Metabolic Activation: HAMSTER, LIVER, S-9, AROCLOR 1254 (10%), Method: PREINCUBATION): active; positive | mutagenic call (Test System: AMES SALMONELLA TYPHIMURIUM, Strain/Indicator: TA100, Metabolic Activation: NONE, Method: PREINCUBATION): inactive; negative | mutagenic call (Test System: AMES SALMONELLA TYPHIMURIUM, Strain/Indicator: TA100, Metabolic Activation: RAT, LIVER, S-9, AROCLOR 1254 (10%), Method: PREINCUBATION): active; positive | mutagenic call (Test System: AMES SALMONELLA TYPHIMURIUM, Strain/Indicator: TA1535, Metabolic Activation: HAMSTER, LIVER, S-9, AROCLOR 1254 (10%), Method: PREINCUBATION): active; positive | mutagenic call (Test System: AMES SALMONELLA TYPHIMURIUM, Strain/Indicator: TA1535, Metabolic Activation: NONE, Method: PREINCUBATION): inactive; negative | mutagenic call (Test System: AMES SALMONELLA TYPHIMURIUM, Strain/Indicator: TA1535, Metabolic Activation: RAT, LIVER, S-9, AROCLOR 1254 (5, 10 OR 30%), Method: PREINCUBATION): inactive; negative

O=S(O)O
mutagenic call (Test System: AMES SALMONELLA TYPHIMURIUM, Strain/Indicator: GW19, Metabolic Activation: NONE, Method: PREINCUBATION (30-90 MIN)): inactive; negative | mutagenic call (Test System: AMES SALMONELLA TYPHIMURIUM, Strain/Indicator: GW19, Metabolic Activation: NONE, Method: STANDARD PLATE): inactive; negative | mutagenic call (Test System: AMES SALMONELLA TYPHIMURIUM, Strain/Indicator: HISG46, Metabolic Activation: NONE, Method: PREINCUBATION): active; positive | mutagenic call (Test System: AMES SALMONELLA TYPHIMURIUM, Strain/Indicator: HISG46, Metabolic Activation: NONE, Method: PREINCUBATION (30-120 MIN)): active; positive | mutagenic call (Test System: AMES SALMONELLA TYPHIMURIUM, Strain/Indicator: HISG46, Metabolic Activation: NONE, Method: STANDARD PLATE): active; positive | mutagenic call (Test System: AMES SALMONELLA TYPHIMURIUM, Strain/Indicator: TA92, Metabolic Activation: NONE, Method: PREINCUBATION (30-90 MIN)): active; positive | mutagenic call (Test System: AMES SALMONELLA TYPHIMURIUM, Strain/Indicator: TA92, Metabolic Activation: NONE, Method: STANDARD PLATE): inactive; negative | mutagenic call [1]: inactive; negative | mutagenic call (Test System: AMES SALMONELLA TYPHIMURIUM, Strain/Indicator: TA97, Metabolic Activation: RAT, LIVER, S-9, AROCLOR 1254, Method: PREINCUBATION): inactive; negative | mutagenic call [2]: inactive; negative | mutagenic call (Test System: AMES SALMONELLA TYPHIMURIUM, Strain/Indicator: TA98, Metabolic Activation: RAT, LIVER, S-9, AROCLOR 1254, Method: STANDARD PLATE): inactive; negative | mutagenic call [3]: inactive; negative | mutagenic call (Test System: AMES SALMONELLA TYPHIMURIUM, Strain/Indicator: TA100, Metabolic Activation: RAT, LIVER, S-9, AROCLOR 1254, Method: STANDARD PLATE): inactive; negative | mutagenic call (Test System: AMES SALMONELLA TYPHIMURIUM, Strain/Indicator: TA102, Metabolic Activation: NONE, Method: PREINCUBATION): inactive; negative | mutagenic call (Test System: AMES SALMONELLA TYPHIMURIUM, Strain/Indicator: TA102, Metabolic Activation: RAT, LIVER, S-9, AROCLOR 1254, Method: PREINCUBATION): inactive; negative | mutagenic call (Test System: AMES SALMONELLA TYPHIMURIUM, Strain/Indicator: TA1535, Metabolic Activation: NONE, Method: STANDARD PLATE): inactive; negative | mutagenic call (Test System: AMES SALMONELLA TYPHIMURIUM, Strain/Indicator: TA1535, Metabolic Activation: RAT, LIVER, S-9, AROCLOR 1254, Method: STANDARD PLATE): inactive; negative | mutagenic call (Test System: AMES SALMONELLA TYPHIMURIUM, Strain/Indicator: TA1537, Metabolic Activation: NONE, Method: STANDARD PLATE): inactive; negative | mutagenic call (Test System: AMES SALMONELLA TYPHIMURIUM, Strain/Indicator: TA1537, Metabolic Activation: RAT, LIVER, S-9, AROCLOR 1254, Method: STANDARD PLATE): inactive; negative | mutagenic call (Test System: AMES SALMONELLA TYPHIMURIUM, Strain/Indicator: TA1538, Metabolic Activation: NONE, Method: STANDARD PLATE): inactive; negative | mutagenic call (Test System: AMES SALMONELLA TYPHIMURIUM, Strain/Indicator: TA1538, Metabolic Activation: RAT, LIVER, S-9, AROCLOR 1254, Method: STANDARD PLATE): inactive; negative | mutagenic call (Test System: AMES SALMONELLA TYPHIMURIUM, Strain/Indicator: TA1950, Metabolic Activation: NONE, Method: PREINCUBATION (30-90 MIN)): active; positive | mutagenic call (Test System: AMES SALMONELLA TYPHIMURIUM, Strain/Indicator: TA1950, Metabolic Activation: NONE, Method: STANDARD PLATE): active; positive | mutagenic call (Test System: AMES SALMONELLA TYPHIMURIUM, Strain/Indicator: TA2410, Metabolic Activation: NONE, Method: PREINCUBATION (30-90 MIN)): active; positive | mutagenic call (Test System: AMES SALMONELLA TYPHIMURIUM, Strain/Indicator: TA2410, Metabolic Activation: NONE, Method: STANDARD PLATE): inactive; negative | mutagenic call (Test System: AMES SALMONELLA TYPHIMURIUM, Strain/Indicator: TS24, Metabolic Activation: NONE, Method: PREINCUBATION (30-90 MIN)): active; positive | mutagenic call (Test System: AMES SALMONELLA TYPHIMURIUM, Strain/Indicator: TS24, Metabolic Activation: NONE, Method: STANDARD PLATE): active; positive | mutagenic call (Test System: E. COLI, Strain/Indicator: WP2, Metabolic Activation: NONE, Method: STANDARD PLATE): inactive; negative | mutagenic call (Test System: E. COLI, Strain/Indicator: WP2, Metabolic Activation: RAT, LIVER, S-9, AROCLOR 1254, Method: STANDARD PLATE): inactive; negative

OC[C@H]1O[C@@H](OC2[C@@H](CO)O[C@H](O)[C@H](O)[C@H]2O)[C@H](O)[C@@H](O)C1O[C@@H]1O[C@H](CO)[C@@H](O)[C@H](O)[C@H]1O (some centres not stated)
mutagenic call (End Point: IN VIVO CHROMOSOMAL ABERRATIONS, Test System: BONE MARROW CELLS, Species: MOUSE, Strain/Sex: CD-1, MALE, Route: IP): inactive; negative | mutagenic call (End Point: IN VIVO CHROMOSOMAL ABERRATIONS, Test System: SPERMATOGONIAL CELLS, Species: MOUSE, Strain/Sex: CD-1, MALE, Route: IP): inactive; negative

Nc1nc(-c2ccc([N+](=O)[O-])o2)cs1
mutagenic call (Test System: AMES SALMONELLA TYPHIMURIUM, Strain/Indicator: TA100, Metabolic Activation: RAT, LIVER, S-9, KC500 OR PHENOBARBITAL, Method: LIQUID SUSPENSION): active; positive | mutagenic call (Test System: E. COLI WP2, Strain/Indicator: WP2, Metabolic Activation: NONE, Method: SPOT): active; positive

CN(C)CCCNc1c2ccccc2nc2c(N(C)C)ccc([N+](=O)[O-])c12
mutagenic call [2]: active; positive | mutagenic call [3]: active; positive
